According to patent publication US9302999B2, “Substituted triazoles as herbicides” (E. I. DU PONT DE NEMOURS AND COMPANY, priority 2012, dated 2016):

Columns and labels:
Format in all cases: in vivo
[1] = tested on: barnyardgrass (Echinochloa crus-galli); assay: Test A pre-/postemergence: barnyardgrass
Outline: (§1)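 Soil medium was loam blended with sand; treatments pre- and postemergence were applied concurrently, postemergence at one- to two-leaf stage. Approximately ten days in greenhouse preceded visual comparison with untreated controls, scored 0 (no effect) to 100 (complete control).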

[2] = tested on: foxtail, giant (giant foxtail, Setaria faberii); assay: Test A pre-/postemergence: foxtail, giant
Outline: as §1

[3] = tested on: morningglory (Ipomoea spp.); assay: Test A pre-/postemergence: morningglory; details: for Morningglory plant response rating: visual rating on 0 to 100 scale (0 no effect, 100 complete control), approximately ten days
Outline: as §1

[4] = tested on: velvetleaf (Abutilon theophrasti); assay: Test A pre-/postemergence: velvetleaf; details: for Velvetleaf plant response rating: visual rating on 0 to 100 scale (0 no effect, 100 complete control), approximately ten days
Outline: as §1

[5] = tested on: wheat (Triticum aestivum); assay: Test A pre-/postemergence: wheat; details: for Wheat plant response rating: visual rating on 0 to 100 scale (0 no effect, 100 complete control), approximately ten days
Outline: as §1

[6] = tested on: blackgrass (Alopecurus myosuroides); assay: Test C pre-/postemergence: blackgrass
Outline: (§2)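 Visual injury scored 0–100 (100 = complete control) against untreated controls after 13–15 greenhouse days. Surfactant-containing solvent formulations applied either to soil after sowing (loam/sand) or over 1- to 4-leaf plants, 2–18 cm tall.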

[7] = tested on: ryegrass, Italian (Italian ryegrass, Lolium multiflorum); assay: Test C pre-/postemergence: ryegrass, Italian
Outline: as §2

wild oat (Avena fatua) = assay: Test C pre-/postemergence: wild oat
Outline: as §2

[8] = tested on: large crabgrass (Digitaria sanguinalis); assay: Test C pre-/postemergence: large crabgrass
Outline: as §2

kochia (Kochia scoparia) = assay: Test C pre-/postemergence: kochia
Outline: as §2

[9] = tested on: lambsquarters (Chenopodium album); assay: Test C pre-/postemergence: lambsquarters
Outline: as §2

[10] = tested on: pigweed (Amaranthus retroflexus); assay: Test C pre-/postemergence: pigweed
Outline: as §2

[11] = Postemergence, 125 g ai/ha, 0 to 100 scale, 0 is no effect, 100 is complete control
[12] = Postemergence, 500 g ai/ha, visual rating on 0 to 100 scale (0 no effect, 100 complete control), approximately ten days
[13] = Preemergence, 125 g ai/ha, 0 to 100 scale where 0 is no effect and 100 is complete control
[14] = Preemergence, 500 g ai/ha, 0 to 100 scale (0 no effect, 100 complete control)
[15] = Preemergence, 31 g ai/ha, scale of 0 to 100, 0 is no effect, 100 is complete control
[16] = Preemergence, 62 g ai/ha, scale of 0 to 100, 0 is no effect, 100 is complete control
[17] = Preemergence, 125 g ai/ha, scale 0 to 100, 0 no effect, 100 complete control
[18] = Preemergence, 250 g ai/ha, scale 0 to 100, 0 no effect, 100 complete control
[19] = Postemergence, 31 g ai/ha, scale 0 to 100 (0 no effect, 100 complete control)
[20] = Postemergence, 62 g ai/ha, scale 0 to 100 (0 no effect, 100 complete control)
[21] = Postemergence, 125 g ai/ha, scale 0 to 100, 0 no effect, 100 complete control
[22] = Postemergence, 250 g ai/ha, scale 0 to 100

SMILES: Cc1nn(-c2ccc(F)c(C(F)(F)F)c2)nc1Oc1ccnc(C(F)(F)F)c1 [Compound 147]
- Barnyardgrass plant response rating [1, 11]: 80
- Barnyardgrass plant response rating [1, 12]: 80
- Plant response rating, Barnyardgrass [1, 13]: 90
- Plant response rating, Barnyardgrass [1, 14]: 100
- Foxtail, Giant plant response rating [2, 11]: 70
- Foxtail, Giant plant response rating [2, 12]: 80
- Plant response rating, Foxtail, Giant [2, 13]: 100
- Plant response rating, Foxtail, Giant [2, 14]: 100
- Plant response rating, Morningglory [3, 11]: 90
- Morningglory plant response rating ([3]; Postemergence, 500 g ai/ha): 90
- Plant response rating, Morningglory [3, 14]: 80
- Plant response rating, Velvetleaf [4, 11]: 50
- Velvetleaf plant response rating ([4]; Postemergence, 500 g ai/ha): 90
- Plant response rating, Velvetleaf [4, 13]: 20
- Plant response rating, Velvetleaf [4, 14]: 50
- Plant response rating, Wheat [5, 11]: 20
- Wheat plant response rating ([5]; Postemergence, 500 g ai/ha): 50
- Plant response rating, Wheat [5, 13]: 30
- Plant response rating, Wheat [5, 14]: 50
- Plant response rating, Blackgrass [6, 15]: 50
- Plant response rating, Blackgrass [6, 16]: 85
- Plant response rating, Blackgrass [6, 17]: 90
- Plant response rating, Blackgrass [6, 18]: 90
- Plant response rating, Ryegrass, Italian [7, 15]: 10
- Plant response rating, Ryegrass, Italian [7, 16]: 50
- Plant response rating, Ryegrass, Italian [7, 17]: 85
- Plant response rating, Ryegrass, Italian [7, 18]: 95
- Plant response rating, Oat, Wild (wild oat (Avena fatua); [15]): 60
- Plant response rating, Oat, Wild (wild oat (Avena fatua); [16]): 70
- Plant response rating, Oat, Wild (wild oat (Avena fatua); [17]): 85
- Plant response rating, Oat, Wild (wild oat (Avena fatua); [18]): 95
- Plant response rating, Crabgrass, Large [8, 15]: 98
- Plant response rating, Crabgrass, Large [8, 16]: 100
- Plant response rating, Crabgrass, Large [8, 17]: 100
- Plant response rating, Crabgrass, Large [8, 18]: 100
- Plant response rating, Kochia (kochia (Kochia scoparia); [15]): 35
- Plant response rating, Kochia (kochia (Kochia scoparia); [16]): 40
- Plant response rating, Kochia (kochia (Kochia scoparia); [17]): 80
- Plant response rating, Kochia (kochia (Kochia scoparia); [18]): 85
- Plant response rating, Lambsquarters [9, 15]: 35
- Plant response rating, Lambsquarters [9, 16]: 45
- Plant response rating, Lambsquarters [9, 17]: 80
- Plant response rating, Lambsquarters [9, 18]: 80
- Plant response rating, Pigweed [10, 15]: 100
- Plant response rating, Pigweed [10, 16]: 100
- Plant response rating, Pigweed [10, 17]: 100
- Plant response rating, Pigweed [10, 18]: 100

SMILES: CCCc1nn(-c2ccc(F)cc2)nc1Cc1ccnc(C(F)(F)F)c1 [Compound 153]
- Plant response rating, Barnyardgrass [1, 11]: 90
- Barnyardgrass plant response rating [1, 12]: 90
- Plant response rating, Barnyardgrass [1, 13]: 100
- Plant response rating, Barnyardgrass [1, 14]: 100
- Plant response rating, Foxtail, Giant [2, 11]: 90
- Foxtail, Giant plant response rating [2, 12]: 100
- Plant response rating, Foxtail, Giant [2, 13]: 100
- Plant response rating, Foxtail, Giant [2, 14]: 100
- Plant response rating, Morningglory [3, 11]: 90
- Morningglory plant response rating ([3]; Postemergence, 500 g ai/ha): 100
- Plant response rating, Morningglory [3, 13]: 80
- Plant response rating, Morningglory [3, 14]: 100
- Plant response rating, Velvetleaf [4, 11]: 100
- Velvetleaf plant response rating ([4]; Postemergence, 500 g ai/ha): 100
- Plant response rating, Velvetleaf [4, 13]: 80
- Plant response rating, Velvetleaf [4, 14]: 100
- Plant response rating, Wheat [5, 11]: 60
- Wheat plant response rating ([5]; Postemergence, 500 g ai/ha): 70
- Plant response rating, Wheat [5, 13]: 50
- Plant response rating, Wheat [5, 14]: 70
- Plant response rating, Blackgrass [6, 19]: 55
- Plant response rating, Blackgrass [6, 20]: 60
- Plant response rating, Blackgrass [6, 21]: 70
- Plant response rating, Blackgrass [6, 22]: 90
- Plant response rating, Blackgrass [6, 15]: 90
- Plant response rating, Blackgrass [6, 16]: 90
- Plant response rating, Blackgrass [6, 17]: 90
- Plant response rating, Blackgrass [6, 18]: 90
- Plant response rating, Ryegrass, Italian [7, 19]: 30
- Plant response rating, Ryegrass, Italian [7, 20]: 35
- Plant response rating, Ryegrass, Italian [7, 21]: 60
- Plant response rating, Ryegrass, Italian [7, 22]: 65
- Plant response rating, Ryegrass, Italian [7, 15]: 60
- Plant response rating, Ryegrass, Italian [7, 16]: 90
- Plant response rating, Ryegrass, Italian [7, 17]: 90
- Plant response rating, Ryegrass, Italian [7, 18]: 90
- Plant response rating, Oat, Wild (wild oat (Avena fatua); [19]): 35
- Plant response rating, Oat, Wild (wild oat (Avena fatua); [20]): 50
- Plant response rating, Oat, Wild (wild oat (Avena fatua); [21]): 70
- Plant response rating, Oat, Wild (wild oat (Avena fatua); [22]): 85
- Plant response rating, Crabgrass, Large [8, 19]: 50
- Plant response rating, Crabgrass, Large [8, 20]: 55
- Plant response rating, Crabgrass, Large [8, 21]: 80
- Plant response rating, Crabgrass, Large [8, 22]: 90
- Plant response rating, Crabgrass, Large [8, 15]: 100
- Plant response rating, Crabgrass, Large [8, 16]: 100
- Plant response rating, Crabgrass, Large [8, 17]: 100
- Plant response rating, Crabgrass, Large [8, 18]: 100
- Plant response rating, Kochia (kochia (Kochia scoparia); [19]): 90
- Plant response rating, Kochia (kochia (Kochia scoparia); [20]): 90
- Plant response rating, Kochia (kochia (Kochia scoparia); [21]): 90
- Plant response rating, Kochia (kochia (Kochia scoparia); [22]): 90
- Plant response rating, Lambsquarters [9, 19]: 95
- Plant response rating, Lambsquarters [9, 20]: 95
- Plant response rating, Lambsquarters [9, 21]: 95
- Plant response rating, Lambsquarters [9, 22]: 95
- Plant response rating, Lambsquarters [9, 15]: 95
- Plant response rating, Lambsquarters [9, 16]: 100
- Plant response rating, Lambsquarters [9, 17]: 100
- Plant response rating, Lambsquarters [9, 18]: 100
- Plant response rating, Pigweed [10, 19]: 95
- Plant response rating, Pigweed [10, 20]: 95
- Plant response rating, Pigweed [10, 21]: 98
- Plant response rating, Pigweed [10, 22]: 98
- Plant response rating, Pigweed [10, 15]: 100
- Plant response rating, Pigweed [10, 16]: 100
- Plant response rating, Pigweed [10, 17]: 100
- Plant response rating, Pigweed [10, 18]: 100

SMILES: Cc1nn(-c2ccc(C(F)(F)F)c(F)c2)nc1Cc1ccnc(C(F)(F)F)c1 [Compound 162]
- Plant response rating, Barnyardgrass [1, 11]: 80
- Barnyardgrass plant response rating [1, 12]: 90
- Plant response rating, Barnyardgrass [1, 13]: 90
- Plant response rating, Barnyardgrass [1, 14]: 100
- Plant response rating, Foxtail, Giant [2, 11]: 90
- Foxtail, Giant plant response rating [2, 12]: 90
- Plant response rating, Foxtail, Giant [2, 13]: 100
- Plant response rating, Foxtail, Giant [2, 14]: 100
- Plant response rating, Morningglory [3, 11]: 90
- Morningglory plant response rating ([3]; Postemergence, 500 g ai/ha): 90
- Plant response rating, Morningglory [3, 13]: 30
- Plant response rating, Morningglory [3, 14]: 90
- Plant response rating, Velvetleaf [4, 11]: 90
- Velvetleaf plant response rating ([4]; Postemergence, 500 g ai/ha): 100
- Plant response rating, Velvetleaf [4, 13]: 100
- Plant response rating, Velvetleaf [4, 14]: 100
- Plant response rating, Wheat [5, 11]: 20
- Wheat plant response rating ([5]; Postemergence, 500 g ai/ha): 30
- Plant response rating, Wheat [5, 13]: 10
- Plant response rating, Wheat [5, 14]: 30
- Plant response rating, Blackgrass [6, 19]: 45
- Plant response rating, Blackgrass [6, 20]: 80
- Plant response rating, Blackgrass [6, 21]: 85
- Plant response rating, Blackgrass [6, 22]: 90
- Plant response rating, Blackgrass [6, 15]: 60
- Plant response rating, Blackgrass [6, 16]: 90
- Plant response rating, Blackgrass [6, 17]: 90
- Plant response rating, Blackgrass [6, 18]: 95
- Plant response rating, Ryegrass, Italian [7, 19]: 30
- Plant response rating, Ryegrass, Italian [7, 20]: 35
- Plant response rating, Ryegrass, Italian [7, 21]: 60
- Plant response rating, Ryegrass, Italian [7, 22]: 80
- Plant response rating, Ryegrass, Italian [7, 15]: 60
- Plant response rating, Ryegrass, Italian [7, 16]: 80
- Plant response rating, Ryegrass, Italian [7, 17]: 90
- Plant response rating, Ryegrass, Italian [7, 18]: 95
- Plant response rating, Oat, Wild (wild oat (Avena fatua); [19]): 40
- Plant response rating, Oat, Wild (wild oat (Avena fatua); [20]): 60
- Plant response rating, Oat, Wild (wild oat (Avena fatua); [21]): 60
- Plant response rating, Oat, Wild (wild oat (Avena fatua); [22]): 90
- Plant response rating, Crabgrass, Large [8, 19]: 20
- Plant response rating, Crabgrass, Large [8, 20]: 35
- Plant response rating, Crabgrass, Large [8, 21]: 35
- Plant response rating, Crabgrass, Large [8, 22]: 80
- Plant response rating, Crabgrass, Large [8, 15]: 100
- Plant response rating, Crabgrass, Large [8, 16]: 100
- Plant response rating, Crabgrass, Large [8, 17]: 100
- Plant response rating, Crabgrass, Large [8, 18]: 100
- Plant response rating, Kochia (kochia (Kochia scoparia); [19]): 90
- Plant response rating, Kochia (kochia (Kochia scoparia); [20]): 90
- Plant response rating, Kochia (kochia (Kochia scoparia); [21]): 95
- Plant response rating, Kochia (kochia (Kochia scoparia); [22]): 95
- Plant response rating, Lambsquarters [9, 19]: 95
- Plant response rating, Lambsquarters [9, 20]: 95
- Plant response rating, Lambsquarters [9, 21]: 98
- Plant response rating, Lambsquarters [9, 22]: 98
- Plant response rating, Pigweed [10, 19]: 85
- Plant response rating, Pigweed [10, 20]: 85
- Plant response rating, Pigweed [10, 21]: 90
- Plant response rating, Pigweed [10, 22]: 95
- Plant response rating, Pigweed [10, 15]: 100
- Plant response rating, Pigweed [10, 16]: 100
- Plant response rating, Pigweed [10, 17]: 100
- Plant response rating, Pigweed [10, 18]: 100
